# Test results reported in patent publication US20160088853A1, “Ultraviolet Disinfection of Produce, Liquids and Surfaces” (DREXEL UNIVERSITY, priority 2013, published 2016).
# Read-outs that look alike come from different tables or passages of the source.
# What was measured:
# [1] = for change in relative fluorescence intensity: 12 minutes of UV exposure; for fluorescence decay rate constant: 1 μM fluorescein, UV
# Protocol: In this example, fluorescein dye was used to detect the presence of free radicals, since interactions of oxidizing free radicals with fluorescein quench the fluorescence signal intensity. A fluorescein dye solution (4 μg/L) containing 0.4% (w/v) fructose and a fluorescein dye solution (4 μg/L) without fructose (control) were exposed to UV radiation at wavelength of 254 nm.
# A batch-UV processing unit (Spectronics Spectrolinker XL-1500 UV Crosslinker, Westbury, N.Y.) was used for Examples 5-10. The apparatus consisted of 5 UV lamps (254 nm, 15 W, Spectronics Corporation, Westbury, N.Y.) that generated a UV intensity of approximately 20 mW/cm^2 at the surface of exposure mounted within a shielded box (46.4×15.9×31.8 cm). Fluorescence intensity measurement noise was minimized by allowing the lamps to warm up for at least 15 minutes prior to taking measurements.
# The test fluorescein solution with approximately 1 μM fluorescein was prepared in deionized water (pH 6.3) or 100 mM buffer at pH 6. […] Specifically, treatments were carried out by adding a 10.0 ml solution into an uncovered glass petri dish and exposing it to UV radiation for various amounts of time (0-12 minutes) in the UV processing unit. The samples in the petri dish were stirred to achieve uniform exposure to UV light. Ambient room temperature (20-22° C.) was used for the treatments. To measure the fluorescence intensity of the solution, at each time interval, 100 μl of the sample was pipetted from the petri dish into a well of a 96-well plate optimized for fluorescence measurement. Fluorescence was measured in a Gemini XPS fluorescence micro-plate reader (Molecular Devices, Sunnyvale, Calif.) with excitation and emission wavelengths of 485 nm and 510 nm, respectively. All the fluorescence values were normalized using Eq. (1):
# where I0=fluorescence intensity at time t=0 minutes and It=fluorescence intensity after ‘t’ minutes of UV exposure.
# [2] = Solution absorbance at 254 nm; assay type: physicochemical
# [3] = system: E. coli BL-21; experiment: UV inactivation of E. coli BL-21 suspension, plate count; assay type: cell-based; conditions: 1% (w/v) gallic acid, UV 10 seconds, 109 CFU/mL in phosphate buffer, FIG. 6
# Protocol: E. coli BL-21 was suspended in phosphate buffer at the level of 10^9 CFU/mL. Gallic acid was incorporated into bacterial suspension at the level of 1% (w/v). This suspension was exposed to UV light (intensity of 4 mJ/cm^2) for 10 seconds. The control experiment was performed in the exact same manner except for addition of gallic acid. After UV treatment, the cells were separated from the buffer through centrifugation and bacterial inactivation was measured using a plate count technique.
# [4] = system: E. coli 0157:H7; conditions: in lettuce; cited from earlier work
# [5] = in the presence of fructose, model apple juice system; cited from earlier work
# [6] = system: bacterial and fungal strains; conditions: riboflavin with UV 365 nm, artificial surface; cited from earlier work
compound,measurement,setting,value
"c1ccoc1 [furan, reference compound]",change in relative fluorescence intensity,[1]; 33 μM furan,< 20%
same,change in relative fluorescence intensity,[1]; 66 μM furan,< 20%
same,average absorbance at 254 nm,[2]; 132 μM,less than 0.001
"O=C(O)c1cc(O)c(O)c(O)c1 [gallic acid, 3,4,5-trihydroxybenzoic acid]",microbial count after exposure to UV light,[3],undetectable
Acidified sodium chlorite,reduction of E. coli 0157:H7,[4],≤ 5 log
O=C(CO)[C@@H](O)[C@H](O)[C@H](O)CO [fructose],fluorescence decay rate constant,[1]; 10 mM fructose,0.16 ± 0.01 min⁻¹
same,fluorescence decay rate constant,[1]; 20 mM fructose,0.27 ± 0.02 min⁻¹
same,fluorescence decay rate constant,[1]; 100 mM fructose,0.91 ± 0.02 min⁻¹
same,fluorescence decay rate constant,[1]; 300 mM fructose,2.1 ± 0.06 min⁻¹
same,fluorescence decay rate constant,[1]; 500 mM fructose,2.4 ± 0.13 min⁻¹
same,fluorescence lost,"[1]; 500 mM fructose, within 2 minutes of UV exposure, FIG. 10A",more than 90%
same,average absorbance at 254 nm,[2]; 500 mM solution,0.12
same,UV induced rate of degradation of patulin,[5],increased
Cc1cc2nc3c(=O)[nH]c(=O)nc-3n(C[C@H](O)[C@H](O)[C@H](O)CO)c2cc1C [Riboflavin],inactivation of bacterial and fungal strains,[6],effective in inactivating most of the bacterial and fungal strains
